Measurements reported in US9023831B2, “Methods and compositions of inhibiting complement and cellular activation with Dextran Sulfate” (Novelmed Therapeutics, Inc., priority 2007, dated 2015).
Several values for one entry are separate records, joined by “and”; a condition that tells them apart may be missing. Identical values can stand only once. Like-named read-outs stand apart in the source and are kept apart here.

Experiments:
[1] = tested on: Alternative Pathway Dependent C3b formation in Normal Human Serum; experiment: Alternative pathway-dependent C3b assay on LPS coated plates; type: biochemical; details: for inhibition of C3b formation: increasing concentrations
Description: As a result, C3b is generated and is deposited on to LPS. […] LPS bound C3b was detected with a rabbit anti-human C3c antibody (Dako Corp). Rabbit antibody bolund to C3b was detected with peroxidase-conjugated goat anti-rabbit polyclonal antibody. Peroxidase was detected with TMB substrate using common methods.
It was of interest to us to determine whether the Dextran Sulfate might appreciably affect the C3b generation, an important component of the amplification loop of the complement cascade. To analyze the effects of the Dextran Sulfate on C3b formation via the alternative pathway, an assay was utilized in which bacterial LPS was used as a substrate to initiate the alternative complement pathway cascade. […] Microtiter wells were coated with LPS (2 μg/50 μl per well) in VBS overnight at 4° C. Uncoated wells served as background controls. After aspirating the LPS solution, wells were treated with blocking solution and incubated with various concentrations of normal human serum. Following a 2 hour incubation at 37° C., deposited C3b was detected with rabbit anti-human C3c polyclonal antibody (Accurate Biochemicals) using standard ELISA methodologies essentially as described in the Examples above. […] The amount of inhibition of soluble C3b deposition was determined using the antibody detection system described in the Examples above.

[2] = target: T1, human properdin (or factor P) (Homo sapiens, UniProt P27918); experiment: Properdin binding to substrate-bound Dextran Sulfate (ELISA); details: substrate-bound Dextran Sulfate on microtiter plate; read-out: affinity of properdin binding to Dextran Sulfate (concentration of properdin at 50% maximal binding)
T1 construct: purchased Advanced Research Technology, San Diego, Calif; A139
Method: The binding of properdin appears to be specific and dose dependent. Leading to an affinity of 4 nM. […] Wells without Dextran Sulfate coating serve as background controls. […] Properdin solution was added to the appropriate wells.

properdin = properdin (Homo sapiens, UniProt P27918); details: Dextran Sulfate added in solution along with properdin
Method: Methods: Polystyrene microtiter plates were coated with Dextran Sulfate overnight. Wells without Dextran Sulfate coating served as background controls. After removal of the Dextran Sulfate solution, the plates were washed and blocked with 1% BSA in PBS. Properdin solution with and without Dextran Sulfate was added to the appropriate wells. After this incubation, properdin solution was aspirated from the plate and the plate was washed. The wells were then incubated with anti-properdin monoclonal antibody at a 1:2000 dilution in blocking solution to allow detection of Dextran Sulfate-bound properdin. The wells were rinsed and further incubated with peroxidase-conjugated goat anti-mouse IgG followed by another wash step. Dextran Sulfate-bound properdin was detected by the addition of TMB substrate. The reaction of TMB was quenched by the addition of O-phosphoric acid and the plate read at 450 nm.

[3] = tested on: Complement Activity in Whole Blood Following Tubing Loop Model; experiment: rRBC hemolysis with plasma after tubing loop model; details: for inhibition of rRBC hemolysis: plasma 10% in AP buffer
Method: Lightscattering was measured as a function of time. […] X-axis is time of hemolysis in seconds and Y-axis is scattering at 700 nm Methods: Whole heparinized blood was diluted with plasmalyte to 50% in the presence or absence of NM3014. Samples were centrifuged, and plasma was subjected to hemolysis assay. Plasma final concentration as 10% in GVB (GVB containing 10 mM MgCl2, 5 mM EGTA). rRBC was added and hemolysis of all samples were recorded.
Plasma aliquots for the alternative pathway hemolytic assays: Plasma samples were subjected to alternative pathway dependent hemolytic assay using AP buffer (GVB containing 10 mM magnesium chloride, 5 mM EGTA). Plasma concentrations were adjusted to 10% final in AP buffer. rRBC were incubated at 37° and the extent of hemolysis was obtained using kinetic run (SoftMax Pro, Molecular Devices, CA).

arthritic Lewis rats = experiment: Joint inflammation and bone destruction in Rat-AIA (CFA-induced arthritis); type: in vivo
Method: Lewis male rats were used to examine the effect of Dextran Sulfate combination with aggrastat (molecular weight 40,000 and 5,000) for the treatment of arthritis. Arthritis was induced in adult male Lewis rats (200-225 gm) by an intradermal injection of complete Freund's adjuvant (CFA) at the base of the tail on the dorsal side. The CFA (100 mg dried and heat killed Mycobacterium butyricum (Difco, Detroit, Mich.) emulsified in 10 ml sterile mineral oil) was prepared by grinding the bacteria powder with a mortar and pestle until the bacterial cell wall turned from a light beige to an eggshell white powder. The mineral oil was then slowly mixed into the bacterial cell wall using the mortar and pestle. All animals in each experiment were challenged with the same preparation of adjuvant and nearly 100% of the animals developed arthritis. Dextran Sulfate was obtained from Sigma Aldrich Corp and Aggrastat was purchased from the pharmacy. Dextran Sulfate was dissolved in aggrastat. The drug treatment started on day 10 post-immunization, the time of disease onset, and continued until sacrifice. The dose of Dextran Sulfate was 20 & 10 mg/Kg/per day per 150-200 g rat. The inflammatory response was assesed by the measurement of paw volume. Paw volume appears to be very consistent and gave slow increasing arthritis over time. Paw volumes were measured every day until sacrifice using Plethysmometer (IITC). After the sacrifice/euthanasia, limbs were removed and processed for;
a) histological evaluations: Only three animals were used per group. Sections were stained with Eosin and hematoxylin to identify various regions within the inflamed limb. Untreated controls have intact cartilage layer and the bone (Score 0) and clear synovium without pannus. Arthritic controls had no defined cartilage bone, and have pannus layer and significant inflammation (Score 5). Enbrel was used as positive control. […] We gave a score of 2.
b) Paw Swelling: Each paw was measured for water displacement using plethysmometer. Paw volume was measured every day.
Continuous treatment of Dextran Sulfate therapies from disease onset affected paw swelling in arthritic rats. All adjuvant-challenged rats developed AA between days 10-12. […] While inflammation was decreased in these treatment groups, we observed a greater effect for these drugs in prevention of bone and cartilage destruction.

[4] = tested on: immune cells infiltrating the synovial fluid; experiment: Cellular infiltration into arthritic knee joints of AIA rabbits; details: 48-h after last treatment, vs vehicle-treated AIA rabbits
Method: Methods. The numbers of immune cells infiltrating the synovial fluid of the right and left joints was determined by cell counting using a hemocytometer.
Synovial samples were also collected from the right and left knees of the AIA rabbits in this experiment and assessed for immunocyte infiltration 48-h after the last Dextran Sulfate or vehicle treatment. […] Data are presented as mean number of cells±SEM for each rabbit (N of 5 per treatment group, Stats: repeated measure ANOVA with Bonferoni Post-hoc test, *p<0.05).

[5] = tested on: C5b-9 Formation in Normal Human Serum; experiment: Alternative pathway-dependent C5b-9 (MAC) solid phase ELISA on LPS; type: biochemical; details: 8% NHS, LPS coated wells
Method: Uncoated wells served as background controls.
Microtiter wells were coated with LPS (2 μg/50 μl per well) in VBS overnight at 4° C. Uncoated wells served as background controls. After aspirating the LPS solution, wells were treated with blocking solution and incubated with various concentrations of normal human serum.

[6] = tested on: Complement Activity in Antigen-Induced Arthritic Rabbit; experiment: Complement activity in antigen-induced arthritic rabbits (C3c assay); details: 60 mg/Kg i.v.; for inhibition of complement activation in vivo: ten minutes after treatment, vs vehicle-treated AIA rabbits
Method: METHODS: After the intra-articular ovalbumin injection to induce arthritis, disease pathology developed for seven days prior to the collection of a blood sample to determine complement activation levels and the administration of Dextran Sulfate treatment. Blood samples were drawn prior to all treatments with Dextran Sulfate to establish baseline values and pre-treatment complement activation levels. Dextran Sulfate (60 mg/Kg) was then injected via the marginal vein every day over a 3 day period. Ten minutes after treatment with Dextran Sulfate a second 1-ml blood sample from the ear to assess complement activation shortly after the treatment. Complement activation was assessed using the C3c assay described in methods.

[7] = tested on: Thrombin Generation in Citrated Human plasma; experiment: Thrombin generation in citrated human plasma (innovin, S2238); type: biochemical
Method: FIG. 7 illustrates NM33014 Inhibits Thrombin Generation in Citrated Human plasma: Citrated Human Plasma was mixed with various concentrations of Dextran Sulfate in the presence of constant concentration of S2238 (Diapharma). […] Data was recorded using Soft Max-Pro on Spectramax 190 kinetic spectramax. Data presented is from a representative experiment that was repeated three times.
Citrated human plasma (100 μl) was mixed with various concentrations of Dextran Sulfate in the presence of constant concentration of S2238 (100 μl of 2 μg/ml).

Properdin Binding to C3b = Properdin Binding to C3b (Homo sapiens, UniProt P27918); experiment: Inhibition of properdin binding to C3b (ELISA); details: C3b coated plates
Properdin Binding to C3b, sequence (P27918 28-469): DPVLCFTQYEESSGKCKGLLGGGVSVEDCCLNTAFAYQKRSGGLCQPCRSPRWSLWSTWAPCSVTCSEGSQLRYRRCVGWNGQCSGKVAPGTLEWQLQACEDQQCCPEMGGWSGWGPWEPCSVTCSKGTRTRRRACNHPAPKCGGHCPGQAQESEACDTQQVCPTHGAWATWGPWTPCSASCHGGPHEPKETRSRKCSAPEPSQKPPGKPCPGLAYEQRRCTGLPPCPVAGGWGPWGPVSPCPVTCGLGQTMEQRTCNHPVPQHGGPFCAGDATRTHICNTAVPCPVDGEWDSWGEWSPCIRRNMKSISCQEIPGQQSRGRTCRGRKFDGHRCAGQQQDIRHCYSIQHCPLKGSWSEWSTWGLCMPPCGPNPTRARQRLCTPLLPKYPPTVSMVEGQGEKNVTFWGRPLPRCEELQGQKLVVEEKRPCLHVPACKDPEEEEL
Method: Methods: Polystyrene microtiter plates were coated with C3b in phosphate buffered saline (PBS) overnight. After aspirating the C3b solution, wells were blocked bovine serum albumin Wells without C3b coating served as background controls. […] Wells were washed PBS and C3b-bound properdin was detected by the addition of a mouse anti-human properdin antibody (Quidel, P#2 monoclonal). After washing the plate with PBS, HRP-conjugated goat anti-mouse antibody (Sigma Chemicals A2304) was added and allowed to incubate for 1 h. The plate was again rinsed thoroughly with PBS, and TMB substrate was added to each well. The data was plotted using Microcal Origin Program.
In a typical assay, polystyrene microtiter plates were coated with C3b (50 μg/50 μl/well, Advanced Research Technologies, San Diego, Calif.) in phosphate buffered saline (PBS) overnight at 4° C. After aspirating the C3b solution, wells were blocked with PBS containing 1% bovine serum albumin (BSA) (Sigma Chemical Company, St. Louis, Mo., Cat. No. A7888) for 2 hours at room temperature. Wells without C3b coating served as background controls. […] C3b-bound properdin was detected by the addition of mouse monoclonal anti-human properdin antibody (detection antibody) (Quidel, San Diego, Calif., anti-human properdin monoclonal antibody P#2, Cat. No. A235) at 1:2000 dilution in blocking solution, which was allowed to incubate for 1 hour at room temperature. […] After incubation for 10 minutes at 25° C., the reaction of TMB was quenched by the addition of 100 μl of phosphoric acid, and the plate was read at 450 nm in a microplate reader (e.g., SPECTRA MAX 190, Molecular Devices, Sunnyvale, Calif.). […]
The ability of a Dextran Sulfate to inhibit C3b-P binding was evaluated by adding varying concentrations of Dextran Sulfate to a constant concentration of properdin (2 nM). The amount of properdin bound to C3b was detected with the antibody detection system described above.

T1 sequence (P27918 28-469): as above
properdin, sequence (P27918 28-469): as above

Kd [2]: 4 nM and ~4 nM
inhibition of properdin binding to substrate-bound Dextran Sulfate (properdin): inhibited
inhibition of properdin binding to substrate-bound Dextran Sulfate (properdin; listed as Dextran Sulfate): dose-dependent inhibition
inhibition of properdin binding to C3b (Properdin Binding to C3b): dose-dependent and complete inhibition
inhibition of properdin binding to C3b (Properdin Binding to C3b; listed as Dextran Sulfate): dose-dependent inhibition
IC50 of inhibition of properdin binding to C3b (Properdin Binding to C3b; human serum containing nearly 2-5 nM properdin): ~50 µg/mL
Substance: Dextran Sulfate [NM3014]
IC50 of inhibition of C3b formation ([1]; 10% normal human serum): 7 to 10 µg/mL
inhibition of C3b formation [1]: inhibited C3b formation in a dose dependent manner
inhibition of C3b formation ([1]; listed as Dextran Sulfate): completely prevents C3b generation in a dose dependent manner
inhibition of rRBC hemolysis ([3]; 100 μg/ml): complete inhibition of hemolysis
inhibition of rRBC hemolysis ([3]; 200 μg/ml): complete inhibition of hemolysis
inhibition of rRBC hemolysis ([3]; 400 μg/ml): complete inhibition of hemolysis
inhibition of rRBC hemolysis ([3]; 800 μg/ml): complete inhibition of hemolysis
inhibition of complement activity in human plasma (hemolysis) ([3]; 100, 400, 800 μg/ml lines of FIG. 10a): inhibits complement activity
inhibition of rRBC hemolysis ([3]; around 40 μg/ml): No inhibition
soft tissue swelling (arthritic Lewis rats; by day 28 post-adjuvant injection, vs vehicle-treated AA rats): significantly decreased
paw swelling (paw volume, plethysmometer) (arthritic Lewis rats; with Aggrastat, compared to untreated controls, listed as Dextran Sulfate 40,000 molecular weight): significantly decreased
immunocyte infiltration into arthritic knee joints [4]: reduced
immunocyte infiltration into arthritic knee joints ([4]; listed as Dextran Sulfate): significant decrease
inhibition of C5b-9 (MAC) formation [5]: Inhibits C5b-9 Formation
inhibition of C5b-9 (MAC) formation ([5]; listed as Dextran Sulfate): completely prevented
inhibition of AP activity in vivo ([6]; 24 hour later): no inhibition
inhibition of complement activation in vivo [6]: complete inhibition
inhibition of complement activation in vivo ([6]; listed as Dextran Sulfate): completely blocked
effect on coagulation (thrombin generation) ([7]; 10 μg/ml): partial effect
effect on coagulation (thrombin generation) ([7]; 30 μg/ml): inhibit coagulation
effect on coagulation (thrombin generation) ([7]; 60 μg/ml): inhibit coagulation
